Results taken from US20260263334A1, “COMPOSITIONS CONTAINING NITRATE-RICH FOODS AND EXTRACTS FOR SHIFTING THE ORAL MICROBIOME” (WM. WRIGLEY JR. COMPANY, priority 2023, published 2026).

Columns and labels:
salivary bacteria = test: nitrate reductase (NR) activity of human salivary bacteria (Griess reagent); type: cell-based
Method: Human stimulated saliva was collected from two subjects and tested for NR activity in the presence of nitrate, cysteine and a combination of nitrate and cysteine. The Griess test was used for nitrite production.
Two subjects were evaluated in this study. The subjects refrained from oral hygiene and eating the night before and morning of the test and their stimulated saliva was collected after chewing 1 g of gum base for 5 minutes. The saliva samples were stored immediately on ice, diluted 1:1 with D.I. H2O and used as a bacterial source for nitrate reductase (NR) activity testing under anaerobic condition.
The contents in each reaction mixture contained (mL):
Detection of the end product of NR and nitrite was by the Griess reagent at OD550 nm readings.

saliva = test: ex vivo production of H2S by saliva (headspace, gas chromatograph with chemiluminescent sulfur detector); type: cell-based, human; conditions: saliva mixed with cysteine
[1] = test system: Aggregatibacter actinomycetemcomitans (A.a.); test: nitrate reductase (NR) activity of A.a. (Griess test); type: cell-based; conditions: for NR activity (OD) of A.a in the presence of cysteine: Cysteine 1%, 0.3% nitrate source
Method: (§1) For evaluation of nitric oxide producing capability of oral bacteria, overnight cultures of test organisms were washed once and transferred into a medium without any nitrate or nitrite compounds. A 0.5% (or 1%) KNO3 was added to the medium, and further incubated anaerobically at 37° C. for 24-48 hours. The concentration of nitrite (due to reduction of nitrate by nitrate reductase) was determined by Griess Test over a desired period of time.
(§2) To examine the effect of natural and chemical antimicrobial agents on NO production, test bacteria were pre-exposed to magnolia bark extract (MBE) (a natural germ-kill compound), peppermint oil, and chlorhexidine (CHX). The activities of nitrate reductase from oral bacteria were assayed by Griess test as described above. No treatment controls were included for each test bacterial species. The production of nitrite was reduced if the test antimicrobial compounds affected the nitrate reductase activity. Dose response curves were prepared.
A. actinomycetemcomitans (A.a.) was grown anaerobically in THB broth supplemented with 1% yeast extract with 0.001% Hemin, and 0.0001% Vitamin K.
The nitrate source KNO3 (0.1% final) was added to respective growth media for individual test bacteria and incubated for 24-48 hours, then 20 μl of the culture broth was withdrawn and tested for nitrite with Griess reagent.
Test bacteria were grown in respective media anaerobically for 48 hours. Cells were centrifuged and re-suspended in buffer or fresh medium for NR activity testing. […]
(§3) Test bacteria cells were incubated with 1% cysteine in growth medium and 0.3% of a nitrate source. Controls contained no cysteine.

[2] = test system: Veillonella atypica (ATCC 17744) (V.a.); test: nitrate reductase (NR) activity of V.a (Griess test); type: cell-based; conditions: Cysteine 1%
Method: as §1, §2
V. atypica was grown in RCM medium without (NH4)2SO4 (to avoid the NH4 affecting Griess reagent); and without agar (0.05%, to avoid affecting the OD measurement).
The method used was the same as that for A.a., except the V.a cell concentration was adjusted to OD550 nm=0.7 (10^8 CFR/ml) in Reduced Transport buffer. The NR activity was also determined in the same buffer system. […]
as §3

| SMILES | NR activity of salivary bacteria (nitrite production) (salivary bacteria; KNO3 3%, saliva of two subjects) | H2S generated in the headspace air (saliva) [ppm] | reduction of NR activity (salivary bacteria; addition of cysteine, pooled saliva from 4 subjects, OD600 nm=0.7, 1.0 and 1.5) | NR activity of salivary bacteria (salivary bacteria; cysteine 0.25% in addition to nitrate (KNO3 3%), saliva of two subjects) | NR activity (OD) of A.a in the presence of cysteine ([1]; 1st trial, 2 hr) [OD] | NR activity (OD) of A.a in the presence of cysteine ([1]; 1st trial, 3 hr) [OD] | NR activity (OD) of A.a in the presence of cysteine ([1]; 2nd trial, 2 hr) [OD] | NR activity (OD) of A.a in the presence of cysteine ([1]; 2nd trial, 3 hr) [OD] | NR activity (OD) of A.a in the presence of cysteine ([1]; 3rd trial, 2 hr) [OD] | NR activity (OD) of A.a in the presence of cysteine ([1]; 3rd trial, 3 hr) [OD] | NR activity of A.a ([1]; addition of cysteine (1%)) | NR activity (OD) of V.a in the presence of cysteine ([2]; 1st trial, 2 hr) [OD] | NR activity (OD) of V.a in the presence of cysteine ([2]; 1st trial, 3 hr) [OD] | NR activity (OD) of V.a in the presence of cysteine ([2]; 2nd trial, 2 hr) [OD] | NR activity (OD) of V.a in the presence of cysteine ([2]; 2nd trial, 3 hr) [OD] | NR activity (OD) of V.a in the presence of cysteine ([2]; 3rd trial, 2 hr) [OD] | NR activity (OD) of V.a in the presence of cysteine ([2]; 3rd trial, 3 hr) [OD] |
| --- | --- | --- | --- | --- | --- | --- | --- | --- | --- | --- | --- | --- | --- | --- | --- | --- | --- |
| O=[N+]([O-])[O-].[K+] [KNO3, potassium nitrate] | induced NR activity |  |  |  |  |  |  |  |  |  |  |  |  |  |  |  |  |
| N[C@@H](CS)C(=O)O [cysteine, L-cysteine] |  | 20 | 23-49% | decrease in NR activity | 0.207 | 0.672 | 0.994 | 0.928 | 0.832 | 0.919 | not significantly affected | 0.372 | 0.711 | 0.487 | 0.808 | 1.139 | 1.144 |
